Experimental data reported in publication PMC5790467, “Enhanced anti-tumor efficacy and mechanisms associated with docetaxel-piperine combination- in vitro and in vivo investigation using a taxane-resistant prostate cancer model” (Oncotarget, 2017).
Like-named read-outs stand apart in the source and are kept apart here.

Assays:
[1] = ketoconazole 200 mg once daily for three days; cancer patients; cited from earlier work
[2] = Body weight and tolerability in mice with TxR tumor xenografts; settings: TxR tumor xenograft mice; two weeks of treatment; control 96%
Procedure: For oral administration of PIP, in 1 ml of PIP dosing solution, 100 µl of its stock solution was solubilized with 500 µl of PEG 400 and 400 µl of physiological saline and the mixture was administrated orally to mice at the dose of 0.1 ml/10 g body weight. […] On Day 0, mice with PC3 cell xenografts were divided into two groups and mice with PC3-TxR cell xenografts were divided into four groups. Mice in each group were treated according to Supplementary Table 3 and the drug dosing lasted for 2 weeks with body weight and tumor sized measured twice per week. […] At the end of experiment, the mice were anesthetized followed by haemospasia to death by cardiac puncture.

[3] = DTX concentration in plasma and tissues of TxR tumor bearing mice (LC/MS/MS); format: in vivo, ICR-NOD/SCID mice; settings: for concentration at 2 h: ICR-NOD/SCID, mouse, iv, 20 mg/kg
Procedure: On Day 14, mice were sacrificed two hours post drug administration. Blood samples were collected by cardiac puncture followed by centrifugation at 5000 rpm for 3 min for obtaining the plasma. Brain, lung, liver, kidney and tumor were collected and weighed. About 100 mg of each tissue samples were carefully weighed and homogenized after being spiked with 300 µl of formic acid (0.2%, v/v). About 50 µl of plasma or tissue homogenates were spiked with 5 µl of 50% acetonitrile in water and 150 µl of mixture of acetonitrile and methanol (50:50, v/v) containing glibenclamide at 50 ng/ml as internal standard. After centrifugation at 13000 rpm for 10 min, the supernatants were injected into LC/MS/MS system which consisted of an Agilent 6430 triple quadrupole mass spectrometer equipped with an electrospray ionization source (ESI), two Agilent 1290 series pumps and autosampler (Agilent Technologies, Inc., CA, USA). The analytes were separated using a Waters Nova-Pak^ÒC18 column (150 mm×3.9 mm, i.d., 4 µm particle size) protected by a collared frit (4/4.6 mm i.d., 0.5 µm pore size, Thermo Scientific full name, city, state, country). The mobile phase consisted of 0.2% formic acid and acetonitrile (50:50, v/v) with a flow rate at 0.4 ml/min.

[4] = test system: PC3-TxR tumor xenografts; assay: Tumor growth in mice with PC3-TxR (taxane-resistant) tumor xenografts; format: in vivo, ICR-NOD/SCID mice; settings: DTX 20 mg/kg once a week i.v.
Procedure: (§1) The following experimental protocol was adopted after approval by the Animal Research Ethics Committee at the Chinese University of Hong Kong. PC3 and PC3-TxR cells were cultured in RPMI 1640 medium containing 10% FBS and 1% penicillin-streptomycin in a humidified atmosphere of 5% CO2 at 37°C. PC3 and PC3-TxR cell pellets were re-suspended in serum free RPMI1640 and diluted by Matrigel™ Basement Membrane Matrix (BD Biosciences, Bedford, MA, USA) to the density of 3.33 × 10^6cells/ml. Male ICR-NOD/SCID mice (Laboratory Animal Services Center at the Chinese University of Hong Kong) weighing 25 to 30 g (age 6–8 weeks) was anesthetized with an intraperitoneal injection of a cocktail containing 87 mg/kg ketamine and 8.7 mg/kg xylazine (diluted with saline and the injection volume was about 0.1 ml). The cell suspension was injected subcutaneously to both the left and right flank region. The tumors were allowed to grow for about 2 weeks. Tumor volumes were measured twice per week (tumor volume = [(W^2 × L)/2], where W is the tumor measurement at the widest point, and L is the tumor dimension at the longest point). When the tumors reach about 100 mm^3, treatment was started and the date was designated as Day 0.

[5] = target: P-gp (Homo sapiens, UniProt P08183); assay: Uptake of DTX in MDCK/MDR1 cells with or without PIP pre-incubation; format: cell-based; parameters: expressed in transfected cells; host or cells: MDCK (MDCK/MDR1), gift from Prof; P. Borst
P-gp, sequence (P08183 whole entry): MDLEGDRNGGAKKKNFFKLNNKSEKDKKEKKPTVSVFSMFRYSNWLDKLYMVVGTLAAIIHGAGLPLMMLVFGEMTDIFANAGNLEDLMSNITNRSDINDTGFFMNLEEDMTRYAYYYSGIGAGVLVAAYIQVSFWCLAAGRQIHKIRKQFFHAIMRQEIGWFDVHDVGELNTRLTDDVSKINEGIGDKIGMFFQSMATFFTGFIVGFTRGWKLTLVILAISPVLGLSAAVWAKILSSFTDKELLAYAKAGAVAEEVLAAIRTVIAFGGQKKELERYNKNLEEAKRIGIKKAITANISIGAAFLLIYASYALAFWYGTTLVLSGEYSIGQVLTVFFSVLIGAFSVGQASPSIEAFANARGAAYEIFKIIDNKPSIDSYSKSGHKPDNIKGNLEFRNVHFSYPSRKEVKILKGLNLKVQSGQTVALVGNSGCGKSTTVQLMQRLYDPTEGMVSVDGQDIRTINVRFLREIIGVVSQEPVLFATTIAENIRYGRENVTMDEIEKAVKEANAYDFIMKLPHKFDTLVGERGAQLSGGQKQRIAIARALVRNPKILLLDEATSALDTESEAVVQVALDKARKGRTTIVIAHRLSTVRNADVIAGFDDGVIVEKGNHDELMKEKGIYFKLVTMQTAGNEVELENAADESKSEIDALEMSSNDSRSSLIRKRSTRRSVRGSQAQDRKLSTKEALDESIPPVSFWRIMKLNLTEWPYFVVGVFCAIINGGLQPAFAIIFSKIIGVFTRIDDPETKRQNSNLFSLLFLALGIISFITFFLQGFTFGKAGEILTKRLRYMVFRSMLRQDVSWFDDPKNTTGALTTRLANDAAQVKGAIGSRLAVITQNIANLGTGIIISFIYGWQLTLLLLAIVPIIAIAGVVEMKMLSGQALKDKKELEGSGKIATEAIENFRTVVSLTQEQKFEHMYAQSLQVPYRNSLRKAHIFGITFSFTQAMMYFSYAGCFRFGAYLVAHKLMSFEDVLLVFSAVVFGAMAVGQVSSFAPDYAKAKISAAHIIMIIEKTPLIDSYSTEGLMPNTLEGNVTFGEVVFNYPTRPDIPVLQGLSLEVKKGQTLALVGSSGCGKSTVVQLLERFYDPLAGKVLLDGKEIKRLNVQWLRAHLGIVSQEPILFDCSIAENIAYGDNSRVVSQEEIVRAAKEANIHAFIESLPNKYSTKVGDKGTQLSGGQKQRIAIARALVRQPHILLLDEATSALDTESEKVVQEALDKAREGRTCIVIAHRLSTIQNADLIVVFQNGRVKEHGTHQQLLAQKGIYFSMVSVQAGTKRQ
Procedure: MDCK cells transfected with human gene (MDCK/MDR1) were cultured in Dulbecco’s modified Eagle’s medium supplemented with 10% FBS and 1% penicillin-streptomycin. Cells were subcultured when the confluence reached 80% by trypsinization with 0.25% of trypsin-EDTA. MDCK/MDR1 cells were seeded at a density of 2 × 10^5 cells/well to 24-well and incubated for 24 h. […] After washing twice with ice-cold HBSS, cells were collected in 100 µl of formic acid (0.2%, v/v) using a scraper. BCA Protein Quantification Kit (Abcamplc., Cambridge, UK) was used to quantify the protein content. Cell lysate was treated by 300 µl of mixture of acetonitrile and methanol (50:50, v/v) containing glibenclamide at 50 ng/ml, followed by sonication for 15 min.

[6] = test system: PC3 tumor xenografts; assay: Tumor growth in mice with PC3 tumor xenografts; format: in vivo, ICR-NOD/SCID mice; settings: DTX 20 mg/kg once a week i.v., n = 3
Procedure: as §1

[7] = test system: PC3-TxR cells; assay: Cell viability (cytotoxicity) of PC3-TxR cells; format: cell-based; settings: Homo sapiens
Source text: www.impactjournals.com/oncotarget/ Oncotarget, Supplementary Materials 2017
investigation using a taxane-resistant prostate cancer model
Supplementary Figure 1: Cell viability (measured from triplicate samples) of PC3-TxR cells. (A) The cytotoxicity of PIP
(1 picture or pasted object on this page, not shown here)

[8] = Day 14, two hours after i.v. bolus DTX, TxR mice

CC(=O)N1CCN(c2ccc(OCC3COC(Cn4ccnc4)(c4ccc(Cl)cc4Cl)O3)cc2)CC1 (stereo not shown) [Ketoconazole]
reduction of the clearance of DTX [1]: 49%

CC(=O)O[C@@]12CO[C@@H]1C[C@H](O)[C@@]1(C)C(=O)[C@H](O)C3=C(C)[C@@H](OC(=O)[C@H](O)[C@@H](NC(=O)OC(C)(C)C)c4ccccc4)C[C@@](O)([C@@H](OC(=O)c4ccccc4)[C@H]21)C3(C)C [DTX, Docetaxel]
percentage of bodyweights [2]: 79% | DTX plasma concentration [3, 8]: 703.847 ± 311.129 ng/mL | DTX tissue concentration, Brain [3, 8]: 0.022 ± 0.009 ng/mg | DTX tissue concentration, Kidney [3, 8]: 2.322 ± 1.447 ng/mg | DTX tissue concentration, Liver [3, 8]: 1.080 ± 0.763 ng/mg | DTX tissue concentration, Tumor [3, 8]: 1.312 ± 0.754 ng/mg | concentration at 2 h ([3]; brain): 22 ng/g | concentration at 2 h ([3]; kidney): 2320 ng/g | concentration at 2 h ([3]; liver): 1080 ng/g | concentration at 2 h ([3]; lung): 5160 ± 2890 ng/g | concentration at 2 h ([3]; plasma): 704 ng/mL | concentration at 2 h ([3]; tumor): 1310 ng/g | percentage of tumor size increase ([4]; TxR tumor xenografts, two weeks after drug administration, PIP 50 mg/kg daily p.o.): 217% | inhibitory effect on the tumor growth in TxR tumor xenografts ([4]; model verification experiment, n = 3): no inhibitory effect | cell uptake of DTX ([5]; DTX 1 μM, absence of PIP): 0.35 ± 0.05 nmol/min/mg protein | cell uptake of DTX ([5]; DTX 5 μM, absence of PIP): 2.44 ± 0.14 nmol/min/mg protein | cell uptake of DTX ([5]; DTX 5 μM, after pre-incubation with PIP): 3.57 ± 0.75 nmol/min/mg protein | cell uptake of DTX ([5]; DTX 10 μM, absence of PIP): 3.30 ± 0.38 nmol/min/mg protein | cell uptake of DTX ([5]; DTX 10 μM, after pre-incubation with PIP): 5.20 ± 0.53 nmol/min/mg protein | percentage of tumor size increase [6]: 55% | IC50 ([7]; read-out: IC50 of DTX on PC3-TxR, DTX + 5 μg/ml PIP): 17.6 nM | IC50 ([7]; read-out: IC50 of DTX on PC3-TxR, DTX + 10 μg/ml PIP): 10.4 nM | IC50 ([7]; read-out: IC50 of DTX on PC3-TxR, DTX + 25 μg/ml PIP): 5.5 nM | IC50 ([7]; read-out: IC50 of DTX on PC3-TxR, DTX alone): 41.4 nM
